According to US20230295152A1 (SENDA BIOSCIENCES, INC., priority 2019, published 2023):

What was measured:
[1] = tested on: CT26 cells implanted subcutaneously into Balb/c mice; assay: CT26 syngeneic colon cancer model, AhR antagonist with PD-L1 antibody; assay type: in vivo; details: for Cmin: CT26 model, dose 10 mg/kg
[2] = as above; assay type: in vivo; details: female, Balb/c, mouse, in vivo, po; CT26 model, dose 10 mg/kg
[3] = In vivo PK study in male CD1 mice; details: for AUC(0-t): read-out: AUCLast Mean; for clearance: read-out: Mouse CL; for Vd: read-out: Mouse Vss
Procedure: (§1) The studies were conducted in male Sprague Dawley rats, three rats per group, or male CD1 mice, three mice per group. Compounds were dosed 1.0 mg/Kg i.v. (vehicle ethanol: % PEG400 in deionized water, in proportions suitable for dosing a clear solution) and 3.0 mg/kg or 10 mg/kg p.o. (vehicle: 1% methyl cellulose: 1,500 cP in DI water (w/v)). A11 animals had free access to food and water. Rat i.v. PK time points: Plasma: 0.083, 0.25, 0.5, 1, 2, 4, 8 and 24 h; Rat p.o. PK time points: Plasma: 0.25, 0.5, 1, 2, 4, 8 and 24 h. Mouse i.v. PK time points: Plasma: 0.083, 0.25, 0.5, 1, 2, 4, 8, 24, and 48 h; Mouse p.o. PK time points: Plasma: 0.25, 0.5, 1, 2, 4, 8, 24, and 48 h. Concentrations of compound in the plasma samples were analyzed using a LC-MS/MS method. WinNonlin (Phoenix™, version 6.1) or other similar software was used for pharmacokinetic calculations.

[4] = In vivo PK study in male Sprague Dawley rats; details: for C0 / AUC(0-inf) / AUC(0-t) / half-life / Cmax / Tmax / bioavailability / clearance / Vd: male, Sprague Dawley, plasma; for C0 / AUC(0-inf) / AUC(0-t) / half-life / Cmax / Tmax / bioavailability / Rat CL (% Qh) / clearance / Vd: rat; for AUC(0-inf): read-out: AUCInf Mean; for AUC(0-t): read-out: AUCLast Mean; for clearance: read-out: Rat CL; for Vd: read-out: Rat Vss
Procedure: as §1

[5] = male, CD1, mouse, plasma, mice, 1 mg/kg IV
[6] = male, CD1, mouse, plasma, mice, 1 mg/kg IV, read-out: T1/2 Mean (converted)
[7] = male, CD1, mouse, plasma, mice, 10 mg/kg PO
[8] = male, CD1, mouse, plasma, mice, 10 mg/kg PO, read-out: Bioavailability
[9] = rats, 1 mg/kg IV, read-out: T1/2 Mean (converted)
[10] = rats, PO, dosage of 3 mg/kg, read-out: Bioavailability
[11] = male, CD1, plasma, intravenous, 1 mg/kg, in vivo DMPK profile, mouse
[12] = male, CD1, plasma, intravenous, 1 mg/kg, in vivo DMPK profile, mouse, read-out: Mouse T1/2 (converted)
[13] = male, CD1, plasma, oral, 10 mg/kg, in vivo DMPK profile, mouse, read-out: Mouse % F
[14] = intravenous, 1 mg/kg, in vivo DMPK profile
[15] = intravenous, 1 mg/kg, in vivo DMPK profile, read-out: Rat T1/2 (converted)
[16] = oral, 3 mg/kg, in vivo DMPK profile, read-out: Rat % F

C[C@H](n1cnc2c(-c3cnn(C)c3)nc(-c3ccc(Cl)cc3)cc2c1=O)C(C)(C)O [Compound 30]
Cmin [1]: 1,725 nm
tumor volume, coadministration with PD-L1 antibody ([1]; FIG. 4, 10 mg/kg p.o. once a day over 14 days with anti-PD-L1 antibody 10 mg/kg IP every 3 days, p=0.039 (Mann-Whitney)): reduction in tumor volume
tumor weight upon termination of study, coadministration with PD-L1 antibody ([1]; FIG. 5, 10 mg/kg p.o. once a day over 14 days with anti-PD-L1 antibody 10 mg/kg IP every 3 days, p=0.067 (Mann-Whitney)): reduction in tumor weight
tumor volume, coadministration with PD-L1 antibody ([1]; FIG. 6, 10 mg/kg p.o. once a day over 14 days with anti-PD-L1 antibody 10 mg/kg IP every 3 days, p=0.350 (Kruskal Wallis, Dunn's)): reduction in tumor volume
tumor weight upon termination of study, coadministration with PD-L1 antibody ([1]; FIG. 7, 10 mg/kg p.o. once a day over 14 days with anti-PD-L1 antibody 10 mg/kg IP every 3 days, p=0.0004 (Kruskal Wallis, Dunn's)): reduction in tumor weight
Cmax [2]: 5.88 µM
C0 [3, 5]: 457 ng/mL
AUC(0-t) [3, 5]: 6380 ng·h/mL
half-life [3, 6]: 8.6 h
Cmax [3, 7]: 2160 ng/mL
Tmax [3, 7]: 8 h
AUC(0-t) [3, 7]: 72800 ng·h/mL
bioavailability [3, 8]: 114%
CI Mean ([3]; mice, 1 mg/kg IV): 43.3 mL/min/kg
C0 ([4]; rats, 1 mg/kg IV): 311 ng/mL
AUC(0-inf) ([4]; rats, 1 mg/kg IV): 2030 ng·h/mL
AUC(0-t) ([4]; rats, 1 mg/kg IV): 2010 ng·h/mL
half-life [4, 9]: 3.62 h
Cmax ([4]; rats, PO, dosage of 3 mg/kg): 276 ng/mL
Tmax ([4]; rats, PO, dosage of 3 mg/kg): 3.33 h
AUC(0-t) ([4]; rats, PO, dosage of 3 mg/kg): 3250 ng·h/mL
bioavailability [4, 10]: 53.9%
CI Mean ([4]; rats, 1 mg/kg IV): 143 mL/min/kg

C[C@@H](CO)n1cnc2c(-c3cccnc3)nc(-c3ccc(C(F)(F)F)cn3)cc2c1=O [Compound 46, (S)-3-(1-hydroxypropan-2-yl)-8-(pyridin-3-yl)-6-(5-(trifluoromethyl)pyridin-2-yl)pyrido[3,4-d]pyrimidin-4(3H)-one]
Cmin [1]: 12,350 nm
tumor volume, coadministration with PD-L1 antibody ([1]; FIG. 12, 10 mg/kg p.o. once a day over 14 days with anti-PD-L1 antibody 10 mg/kg IP every 3 days): reduction in tumor volume
tumor weight upon termination of study, coadministration with PD-L1 antibody ([1]; FIG. 13, 10 mg/kg p.o. once a day over 14 days with anti-PD-L1 antibody 10 mg/kg IP every 3 days): reduction in tumor weight
Cmax [2]: 17.3 µM
Mouse CL (% Qh) ([3]; in vivo DMPK profile, mouse): 2 % Qh
C0 [3, 5]: 470 ng/mL
AUC(0-t) [3, 5]: 8400 ng·h/mL
half-life [3, 6]: 15.7 h
Cmax [3, 7]: 2370 ng/mL
AUC(0-t) [3, 7]: 67700 ng·h/mL
bioavailability [3, 8]: 80.6%
half-life ([3]; male, CD1, mouse, plasma, mice, 10 mg/kg PO, read-out: T1/2 Mean (converted)): 8 h
clearance [3, 11]: 1.8 mL/min/kg
half-life [3, 12]: 15.7 h
Vd [3, 11]: 2.3 L/kg
bioavailability [3, 13]: 80.6%
CI Mean ([3]; mice, 1 mg/kg IV): 29.3 mL/min/kg
Rat CL (% Qh) ([4]; in vivo DMPK profile): 9 % Qh
clearance [4, 14]: 6.7 mL/min/kg
half-life [4, 15]: 5.6 h
Vd [4, 14]: 3.1 L/kg
bioavailability [4, 16]: 89%
C0 ([4]; rats, 1 mg/kg IV): 301 ng/mL
AUC(0-inf) ([4]; rats, 1 mg/kg IV): 2490 ng·h/mL
AUC(0-t) ([4]; rats, 1 mg/kg IV): 2350 ng·h/mL
half-life [4, 9]: 5.65 h
Cmax ([4]; rats, PO, dosage of 3 mg/kg): 462 ng/mL
Tmax ([4]; rats, PO, dosage of 3 mg/kg): 3.33 h
AUC(0-t) ([4]; rats, PO, dosage of 3 mg/kg): 6280 ng·h/mL
bioavailability [4, 10]: 89%
half-life ([4]; rats, PO, dosage of 3 mg/kg, read-out: T1/2 Mean (converted)): 5.73 h
CI Mean ([4]; rats, 1 mg/kg IV): 112 mL/min/kg

CC(C)(O)Cn1cnc2c(-c3cccnc3)nc(-c3ccc(C(F)(F)F)nc3)cc2c1=O [Compound 9]
tumor volume and weight, combination with PD-L1 compared to PD-L1 alone (overall) ([1]; 10 mg/kg or 1 mg/kg p.o. once a day over 14 days with anti-PD-L1 antibody 10 mg/kg IP every 3 days): decreases tumor volume and weight compared to PD-L1 alone
Cmin [1]: 849 nm
tumor volume, coadministration with PD-L1 antibody ([1]; FIG. 8, 10 mg/kg p.o. once a day over 14 days with anti-PD-L1 antibody 10 mg/kg IP every 3 days, p=0.0070 (Mann-Whitney)): reduction in tumor volume
tumor weight upon termination of study, coadministration with PD-L1 antibody ([1]; FIG. 9, p.o. once a day over 14 days with anti-PD-L1 antibody 10 mg/kg IP every 3 days, p=0.0114 (Mann-Whitney)): reduction in tumor weight
tumor volume, coadministration with PD-L1 antibody ([1]; FIG. 10, 1 mg/kg p.o. once a day over 14 days with anti-PD-L1 antibody 10 mg/kg IP every 3 days, p=0.0039 (Kruskal Wallis, Dunn's)): reduction in tumor volume
tumor weight upon termination of study, coadministration with PD-L1 antibody ([1]; FIG. 11, p.o. once a day over 14 days with anti-PD-L1 antibody 10 mg/kg IP every 3 days, p=0.0029 (Kruskal Wallis, Dunn's)): reduction in tumor weight
Cmax [2]: 4.96 µM
Mouse CL (% Qh) ([3]; in vivo DMPK profile, mouse): 3.85 % Qh
AUC(0-t) [3, 5]: 4880 ng·h/mL
half-life [3, 6]: 5.37 h
Cmax [3, 7]: 1470 ng/mL
Tmax [3, 7]: 5.67 h
AUC(0-inf) ([3]; male, CD1, mouse, plasma, mice, 10 mg/kg PO, read-out: AUCInf Mean): 34200 ng·h/mL
bioavailability [3, 8]: 70.3%
clearance [3, 11]: 3.4 mL/min/kg
half-life [3, 12]: 5.4 h
Vd [3, 11]: 1.9 L/kg
bioavailability [3, 13]: 70.3%
CI Mean ([3]; mice, 1 mg/kg IV): 57 mL/min/kg
Rat CL (% Qh) ([4]; in vivo DMPK profile): 5.8 % Qh
clearance [4, 14]: 4.1 mL/min/kg
half-life [4, 15]: 5.4 h
Vd [4, 14]: 1.75 L/kg
bioavailability [4, 16]: 77%
